According to ChEMBL document CHEMBL4825658, “Discovery of 3-(4-(2-((1H-Indol-5-yl)amino)-5-fluoropyrimidin-4-yl)-1H-pyrazol-1-yl)propanenitrile Derivatives as Selective TYK2 Inhibitors for the Treatment of Inflammatory Bowel Disease” (J Med Chem, 2021):

Experiments:
[1] = target: Tyrosine-protein kinase JAK2 (Homo sapiens, UniProt O60674); experiment: Inhibition of recombinant human JAK2 (808 to end residues) KTFCGTPEYLAPE as substrate measured after 40 mins in presence of [gamm33P]ATP by scintillation counting based radiometry assay
[2] = target: Non-receptor tyrosine-protein kinase TYK2 (Homo sapiens, UniProt P29597); experiment: Inhibition of recombinant human TYK2 (875 to end residues) using GGMEDIYFEFMGG as substrate incubated for 40 mins in presence of [gamma33P]ATP by scintillation counting based radiometry assay
[3] = Metabolic stability in cryopreserved human liver microsomes assessed as half life; type: ADME, Microsome
[4] = target: Tyrosine-protein kinase JAK1 (Homo sapiens, UniProt P23458); experiment: Inhibition of human JAK1 (866 to end residues) using GEEPLYWSFPAKKK as substrate after 40 mins in presence of [gamma33P]ATP by scintillation counting based radiometry assay
[5] = target: T1, Tyrosine-protein kinase JAK3 (Homo sapiens, UniProt P52333); experiment: Inhibition of recombinant human JAK3 (781 to end residues) using GGEEEEYFELVKKKK as substrate measured after 40 mins in presence of [gamma33P]ATP by scintillation counting based radiometry assay
T1 sequence (P52333 whole entry): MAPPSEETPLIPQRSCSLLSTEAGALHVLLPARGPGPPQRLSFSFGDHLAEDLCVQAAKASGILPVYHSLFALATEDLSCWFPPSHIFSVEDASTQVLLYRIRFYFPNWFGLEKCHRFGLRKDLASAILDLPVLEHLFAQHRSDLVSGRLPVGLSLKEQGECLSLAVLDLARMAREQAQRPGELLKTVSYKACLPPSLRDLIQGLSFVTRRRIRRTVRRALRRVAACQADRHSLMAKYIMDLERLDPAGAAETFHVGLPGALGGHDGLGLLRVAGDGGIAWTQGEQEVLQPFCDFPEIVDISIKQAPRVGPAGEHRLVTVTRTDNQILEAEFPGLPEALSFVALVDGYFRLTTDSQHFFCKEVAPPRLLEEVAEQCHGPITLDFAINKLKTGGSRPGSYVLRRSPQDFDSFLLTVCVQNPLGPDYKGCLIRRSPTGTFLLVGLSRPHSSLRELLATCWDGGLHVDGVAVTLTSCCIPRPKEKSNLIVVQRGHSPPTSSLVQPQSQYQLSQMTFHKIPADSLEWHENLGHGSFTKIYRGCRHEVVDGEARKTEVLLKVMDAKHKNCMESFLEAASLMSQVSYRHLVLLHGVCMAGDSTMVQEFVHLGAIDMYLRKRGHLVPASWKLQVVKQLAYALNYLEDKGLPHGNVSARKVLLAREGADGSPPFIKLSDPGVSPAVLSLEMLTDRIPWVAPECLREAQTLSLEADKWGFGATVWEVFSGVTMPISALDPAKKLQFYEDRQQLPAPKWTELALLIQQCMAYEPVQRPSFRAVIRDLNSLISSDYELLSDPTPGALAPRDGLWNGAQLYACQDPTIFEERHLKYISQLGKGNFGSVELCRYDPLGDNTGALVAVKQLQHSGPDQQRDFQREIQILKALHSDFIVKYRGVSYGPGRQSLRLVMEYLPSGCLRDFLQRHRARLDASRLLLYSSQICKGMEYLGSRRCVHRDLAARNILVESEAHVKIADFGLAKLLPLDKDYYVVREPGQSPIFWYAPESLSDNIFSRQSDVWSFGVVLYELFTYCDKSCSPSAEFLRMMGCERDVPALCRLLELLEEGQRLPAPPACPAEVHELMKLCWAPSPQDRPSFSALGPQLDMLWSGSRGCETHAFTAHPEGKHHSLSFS

Homo sapiens = organism: Homo sapiens; experiment: Selectivity index, ratio of IC50 for inhibition of recombinant human JAK2 (808 to end residues) to IC50 for inhibition of recombinant human TYK2 (875 to end residues)

Sequence of Non-receptor tyrosine-protein kinase TYK2 (P29597 whole entry): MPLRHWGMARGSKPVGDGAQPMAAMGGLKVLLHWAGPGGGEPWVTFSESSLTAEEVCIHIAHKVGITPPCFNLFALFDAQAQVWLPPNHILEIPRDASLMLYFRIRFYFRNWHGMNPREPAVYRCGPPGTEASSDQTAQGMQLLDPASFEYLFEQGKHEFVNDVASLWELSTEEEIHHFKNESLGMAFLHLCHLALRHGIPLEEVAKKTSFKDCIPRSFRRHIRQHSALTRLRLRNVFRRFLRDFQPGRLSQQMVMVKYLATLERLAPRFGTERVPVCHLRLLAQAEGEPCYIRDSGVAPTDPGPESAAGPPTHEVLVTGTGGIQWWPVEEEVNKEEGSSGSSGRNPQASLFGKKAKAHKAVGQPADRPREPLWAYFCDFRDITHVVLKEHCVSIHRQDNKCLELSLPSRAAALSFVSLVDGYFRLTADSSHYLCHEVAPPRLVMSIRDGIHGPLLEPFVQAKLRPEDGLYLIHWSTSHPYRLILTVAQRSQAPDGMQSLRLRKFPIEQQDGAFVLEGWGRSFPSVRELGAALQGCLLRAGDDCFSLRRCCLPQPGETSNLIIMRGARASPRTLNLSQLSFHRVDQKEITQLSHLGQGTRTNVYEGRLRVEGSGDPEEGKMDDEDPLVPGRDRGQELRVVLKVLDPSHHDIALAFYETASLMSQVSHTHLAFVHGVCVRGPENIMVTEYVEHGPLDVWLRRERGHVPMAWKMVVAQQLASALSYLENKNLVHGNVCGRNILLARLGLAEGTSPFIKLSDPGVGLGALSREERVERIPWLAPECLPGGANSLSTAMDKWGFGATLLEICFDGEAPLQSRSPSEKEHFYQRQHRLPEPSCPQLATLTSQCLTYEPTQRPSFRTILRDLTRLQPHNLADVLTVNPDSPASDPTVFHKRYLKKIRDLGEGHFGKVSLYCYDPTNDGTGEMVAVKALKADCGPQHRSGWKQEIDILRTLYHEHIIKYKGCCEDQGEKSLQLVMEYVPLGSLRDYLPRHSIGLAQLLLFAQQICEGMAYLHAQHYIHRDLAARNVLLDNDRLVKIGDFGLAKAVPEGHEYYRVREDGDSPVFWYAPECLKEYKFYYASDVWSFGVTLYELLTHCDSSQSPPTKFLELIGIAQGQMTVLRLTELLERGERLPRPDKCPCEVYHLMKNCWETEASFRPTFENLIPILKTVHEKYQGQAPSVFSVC
Sequence of Tyrosine-protein kinase JAK2 (O60674 whole entry): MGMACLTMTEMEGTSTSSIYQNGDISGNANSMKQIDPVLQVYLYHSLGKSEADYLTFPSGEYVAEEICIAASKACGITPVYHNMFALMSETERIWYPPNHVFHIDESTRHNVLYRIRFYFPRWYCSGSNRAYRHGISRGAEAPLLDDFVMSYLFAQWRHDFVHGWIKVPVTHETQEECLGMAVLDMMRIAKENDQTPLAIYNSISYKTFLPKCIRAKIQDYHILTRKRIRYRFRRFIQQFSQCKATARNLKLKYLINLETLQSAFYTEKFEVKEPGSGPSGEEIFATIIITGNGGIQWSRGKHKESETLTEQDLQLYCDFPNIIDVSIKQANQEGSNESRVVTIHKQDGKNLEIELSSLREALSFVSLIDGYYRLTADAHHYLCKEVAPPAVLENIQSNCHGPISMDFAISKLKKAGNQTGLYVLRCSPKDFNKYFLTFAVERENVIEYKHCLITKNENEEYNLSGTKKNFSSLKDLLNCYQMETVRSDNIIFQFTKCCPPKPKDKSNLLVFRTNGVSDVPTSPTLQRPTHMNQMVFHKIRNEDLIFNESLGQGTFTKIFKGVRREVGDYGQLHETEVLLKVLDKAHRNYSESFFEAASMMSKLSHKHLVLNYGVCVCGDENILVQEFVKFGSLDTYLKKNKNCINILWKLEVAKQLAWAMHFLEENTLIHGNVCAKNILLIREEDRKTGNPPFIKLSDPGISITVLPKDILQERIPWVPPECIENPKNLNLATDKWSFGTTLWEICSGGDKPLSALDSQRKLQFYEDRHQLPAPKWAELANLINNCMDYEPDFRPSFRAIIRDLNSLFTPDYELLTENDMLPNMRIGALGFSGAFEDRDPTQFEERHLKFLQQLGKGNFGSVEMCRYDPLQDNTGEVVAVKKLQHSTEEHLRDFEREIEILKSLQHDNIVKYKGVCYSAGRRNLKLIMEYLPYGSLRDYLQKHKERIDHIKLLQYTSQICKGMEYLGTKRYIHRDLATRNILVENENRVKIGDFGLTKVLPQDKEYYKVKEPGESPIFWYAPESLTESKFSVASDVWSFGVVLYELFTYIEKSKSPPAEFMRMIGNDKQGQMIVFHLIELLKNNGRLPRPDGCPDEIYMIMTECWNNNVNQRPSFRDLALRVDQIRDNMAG
Sequence of Tyrosine-protein kinase JAK1 (P23458 whole entry): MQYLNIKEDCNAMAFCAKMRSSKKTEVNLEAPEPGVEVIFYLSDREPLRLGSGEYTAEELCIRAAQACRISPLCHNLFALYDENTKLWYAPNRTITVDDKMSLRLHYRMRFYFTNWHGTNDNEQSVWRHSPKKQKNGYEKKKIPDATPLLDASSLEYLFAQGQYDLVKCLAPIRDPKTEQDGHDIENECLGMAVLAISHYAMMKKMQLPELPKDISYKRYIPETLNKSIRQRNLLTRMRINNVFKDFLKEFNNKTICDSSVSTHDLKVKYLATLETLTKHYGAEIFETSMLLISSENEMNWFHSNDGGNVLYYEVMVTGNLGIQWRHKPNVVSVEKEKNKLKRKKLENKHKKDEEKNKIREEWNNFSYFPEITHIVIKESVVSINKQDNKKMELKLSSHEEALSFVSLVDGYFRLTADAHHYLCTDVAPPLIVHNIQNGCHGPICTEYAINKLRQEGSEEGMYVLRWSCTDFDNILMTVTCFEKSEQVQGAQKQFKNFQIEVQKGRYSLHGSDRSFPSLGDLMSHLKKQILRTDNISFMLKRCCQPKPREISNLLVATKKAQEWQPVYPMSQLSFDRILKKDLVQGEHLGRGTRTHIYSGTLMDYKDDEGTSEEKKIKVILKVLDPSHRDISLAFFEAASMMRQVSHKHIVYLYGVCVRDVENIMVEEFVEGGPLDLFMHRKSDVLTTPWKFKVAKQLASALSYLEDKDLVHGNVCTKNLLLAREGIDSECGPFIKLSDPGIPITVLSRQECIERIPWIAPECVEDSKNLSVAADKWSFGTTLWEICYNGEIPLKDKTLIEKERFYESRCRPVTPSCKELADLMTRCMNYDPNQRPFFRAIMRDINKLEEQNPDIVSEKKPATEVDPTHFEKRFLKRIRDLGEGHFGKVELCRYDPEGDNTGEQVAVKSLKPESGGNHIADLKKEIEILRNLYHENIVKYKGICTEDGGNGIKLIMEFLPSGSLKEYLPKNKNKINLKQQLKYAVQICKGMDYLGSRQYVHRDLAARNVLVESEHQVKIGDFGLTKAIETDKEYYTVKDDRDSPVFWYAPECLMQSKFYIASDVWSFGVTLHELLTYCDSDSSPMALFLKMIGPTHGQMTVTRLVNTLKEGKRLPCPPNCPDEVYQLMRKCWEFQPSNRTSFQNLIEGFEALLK

Row | IC50 [1] [nM] | IC50 [2] [nM] | half-life [3] [min] | IC50 [4] [nM] | IC50 [5] [nM] | Selectivity Index (Homo sapiens) | Compound
1 | 299 | 151 | 69.3 | – | – | – | N#CCCn1cc(-c2nc(Nc3ccc4c(ccn4C(=O)C4CC4)c3)ncc2F)cn1
2 | 292 | 2 | 3.2 | – | – | – | N#CCCn1cc(-c2nc(Nc3ccc4c(c3)CCN4)ncc2F)cn1
3 | 341 | 38 | 15.3 | 383 | 510 | – | CCOC(C)n1cc(-c2nc(Nc3ccc4c(c3)CCN4S(=O)(=O)c3ccc(C(F)(F)F)cc3)ncc2C)cn1 (stereo unspecified)
4 | 114 | 18 | 7.62 | – | – | – | Cn1ccc2cc(Nc3ncc(F)c(-c4cnn(CCC#N)c4)n3)ccc21
5 | 2.29 | 3.84 | – | – | – | < 1 | CCCS(=O)(=O)N1CCc2cc(Nc3ncc(C)c(-c4cnn(C(C)C)c4)n3)ccc21
6 | – | 2 | > 120 | 125 | 244 | – | N#CCCn1cc(-c2nc(Nc3ccc4c(c3)CCN4C(=O)CN3CCS(=O)(=O)CC3)ncc2F)cn1
7 | 3.8 | 2.05 | – | – | – | 1.85 | Cc1cnc(Nc2ccc3c(c2)CCN3C(=O)[C@H]2CCCN2C(=O)C2(C#N)CC2)nc1-c1cnn(C(C)C)c1
8 | – | 60 | 4.13 | – | – | – | Cc1cnc(Nc2ccc3c(c2)CCN3S(=O)(=O)c2ccc(C(F)(F)F)cc2)nc1-c1cnn(C2CC2)c1
9 | 21 | 2 | 22 | 84 | > 1000 | – | Cc1cnc(Nc2ccc3c(c2)CCN3S(=O)(=O)c2ccc(C(F)(F)F)cc2)nc1-c1cnn(CCC#N)c1
10 | 2.38 | 2.69 | – | – | – | < 1 | Cc1cnc(Nc2ccc3c(c2)CCN3S(=O)(=O)C2CC2)nc1-c1cnn(C(C)C)c1
11 | – | – | 38.1 | – | – | – | N#CCCn1cc(-c2nc(Nc3ccc4c(ccn4S(=O)(=O)c4ccc(C(F)(F)F)cc4)c3)ncc2F)cn1
12 | 65.3 | 14.6 | – | – | – | 4.49 | Cc1cnc(Nc2ccc3c(c2)CCN3C(=O)c2cccc(C(F)(F)F)c2)nc1-c1cnn(C(C)C)c1
13 | – | 2 | – | – | – | – | Cc1cnc(Nc2ccc(N3CCC(N(C)CCO)CC3)c(F)c2)nc1-c1cnn(C(C)C)c1
14 | 12 | 9.64 | – | – | – | 1.24 | Cc1cnc(Nc2ccc3c(c2)CCN3C(=O)CCN2CCOCC2)nc1-c1cnn(C(C)C)c1
15 | 12.6 | 63 | – | – | – | < 1 | Cc1cnc(Nc2ccc3c(c2)CCN3S(=O)(=O)c2ccc3c(c2)CC(=O)N3C)nc1-c1cnn(C(C)C)c1
16 | 3.86 | 3.76 | – | – | – | 1.03 | Cc1cnc(Nc2ccc3c(c2)CCN3C(=O)C2CC2)nc1-c1cnn(C(C)C)c1
17 | 398 | 51.1 | – | – | – | 7.8 | Cc1cnc(Nc2ccc3c(c2)CCN3C(=O)Cc2ccc(OC(F)(F)F)cc2)nc1-c1cnn(C(C)C)c1
18 | 196 | 4 | 9.8 | 912 | > 1000 | – | N#CCCn1cc(-c2nc(Nc3ccc4c(c3)CCN4S(=O)(=O)C(F)(F)F)ncc2F)cn1
19 | 25 | 13 | – | 41 | 688 | – | Cc1cnc(Nc2ccc(NS(=O)(=O)c3ccc(C(F)(F)F)cc3)c(F)c2)nc1-c1cnn(C(C)C)c1
20 | 3 | 1.99 | – | – | – | 1.51 | Cc1cnc(Nc2ccc3c(c2)CCN3C(=O)CN2CCS(=O)(=O)CC2)nc1-c1cnn(C(C)C)c1

Row | IC50 [1] [nM] | IC50 [2] [nM] | half-life [3] [min] | IC50 [4] [nM] | IC50 [5] [nM] | Selectivity Index (Homo sapiens) | Compound
21 | – | 9 | 9.2 | – | – | – | N#CCCn1cc(-c2nc(Nc3ccc4c(c3)CCN4S(=O)(=O)c3ccc(C(F)(F)F)cc3)ncc2F)cn1
22 | 3 | 5 | – | – | – | < 1 | Cc1cnc(Nc2ccc3c(c2)CCN3C(=O)[C@H]2CCCN2)nc1-c1cnn(C(C)C)c1
23 | 25 | 12.3 | – | – | – | 2.03 | Cc1cnc(Nc2ccc3c(c2)CCN3S(=O)(=O)c2ccc3c(c2)CC(=O)N3)nc1-c1cnn(C(C)C)c1
24 | 2.72 | 1.61 | – | – | – | 1.69 | CCS(=O)(=O)N1CCc2cc(Nc3ncc(C)c(-c4cnn(C(C)C)c4)n3)ccc21
25 | 1.1 | 0.67 | 7.79 | – | – | – | Cc1cnc(Nc2ccc3c(c2)CNC3=O)nc1-c1cnn(CCC#N)c1
26 | 28 | 6 | 31.8 | 259 | 191 | – | N#CCCn1cc(-c2nc(Nc3ccc4c(c3)CCN4C(=O)C3(C#N)CC3)ncc2F)cn1
27 | 58 | 7 | 56.8 | – | – | – | N#CCCn1cc(-c2nc(Nc3ccc4c(c3)CNC4=O)ncc2F)cn1
28 | 601 | 40 | – | – | – | – | CC(C)(C)c1ccc(C(=O)N2CCc3cc(Nc4ncc(F)c(-c5cnn(CCC#N)c5)n4)ccc32)cc1
29 | 153 | 5 | 17.2 | – | – | – | N#CCCn1cc(-c2nc(Nc3ccc4c(c3)CCN4C(=O)c3ccc(C(F)(F)F)cc3)ncc2F)cn1
30 | 6 | 1.81 | – | – | – | 3.31 | CC(=O)N1CCc2cc(Nc3ncc(C)c(-c4cnn(C(C)C)c4)n3)ccc21
31 | 6.65 | 5.72 | – | – | – | 1.16 | Cc1cnc(Nc2ccc3c(c2)CCN3C(=O)C2CC2(F)F)nc1-c1cnn(C(C)C)c1 (stereo unspecified)
32 | – | 23 | 2.38 | – | – | – | CCCn1cc(-c2nc(Nc3ccc4c(c3)CCN4S(=O)(=O)c3ccc(C(F)(F)F)cc3)ncc2C)cn1
33 | > 1000 | 148 | 7.3 | > 1000 | > 1000 | – | Cc1cnc(Nc2ccc3c(c2)CCN3S(=O)(=O)c2ccc(C(F)(F)F)cc2)nc1-c1cnn(C)c1
34 | 21.2 | 10.8 | – | – | – | 1.95 | Cc1cnc(Nc2ccc3c(c2)CCN3C(=O)[C@@H](O)CO)nc1-c1cnn(C(C)C)c1
35 | 82 | 16 | 3.94 | 341 | > 1000 | 5.12 | Cc1cnc(Nc2ccc3c(c2)CCN3S(=O)(=O)c2ccc(C(F)(F)F)cc2)nc1-c1cnn(C(C)C)c1
36 | 25.1 | 10.6 | – | – | – | 2.36 | Cc1cnc(Nc2ccc3c(c2)CCN3C(=O)c2ccc(C(F)(F)F)cc2F)nc1-c1cnn(C(C)C)c1
37 | 24.1 | 7.82 | – | – | – | 3.08 | COc1ccc(S(=O)(=O)N2CCc3cc(Nc4ncc(C)c(-c5cnn(C(C)C)c5)n4)ccc32)cc1
38 | 10.4 | 6.28 | – | – | – | 1.65 | Cc1cnc(Nc2ccc3c(c2)CCN3C(=O)[C@@H]2C[C@@H]2F)nc1-c1cnn(C(C)C)c1
39 | 162 | 12 | 19.5 | 333 | > 1000 | – | Cc1cnc(Nc2ccc3c(c2)CCN3S(=O)(=O)c2ccc(C(F)(F)F)cc2)nc1-c1cnn(C2CCC2)c1
